Among the data in patent publication US6605628B1, “Method of using 5-(arysulfonyl)-, 5-(arylsulfanyl)-and 5-(arylsulfanyl)thiazolidine-2,4-diones for inhibition of farnesyl-protein transferase” (Wyeth Holdings Corporation, priority 2001, dated 2003) are IC50 and melting point values, retold here.

In data set [1] the target is T1, FPTase (Homo sapiens, UniProt P49354+P49356). Nature of the data set: in vitro FTase Inhibition Assay, H-Ras used as substrate for farnesylation. The data set is classed as biochemical. The note with it: Table I, read-out: IC50 H-Ras*.
Data set [2] has as its target T1, FPTase. Nature of the data set: in vitro FTase Inhibition Assay, K-Ras used as substrate for farnesylation. The data set is classed as biochemical. The note with it: Table I.

One may read the IC50 as the point on the concentration scale where inhibition reaches its midpoint. As a reminder, the melting point is the temperature, or range, at which the solid turns liquid. The compound `COc1ccc(S(=O)(=O)C2(CCCC#Cc3cc(Cl)ccc3C)SC(=O)NC2=O)cc1` (stereo not drawn) [Example 138, 5-[5-(5-Chloro-2-methylphenyl)pent-4-ynyl]-5-(4-methoxybenzene-sulfonyl)-thiazolidine-2,4-dione] registered a melting point of 121 to 122 °C. Also, the IC50 on FPTase [1] was in the range of 23 to 32 nM. At FPTase [2], this compound displayed an IC50 of 300 to 420 nM.

With `COc1ccc(S(=O)(=O)C2(CCCC#Cc3ccc(C#N)cc3)SC(=O)NC2=O)cc1` (stereo not drawn) [Example 158, 4-(5-[5-(4-Methoxybenzenesulfonyl)-2,4-dioxo-thiazolidin-5-yl]pent-1-ynyl}benzonitrile], the melting point was 174 to 178 °C. Moreover, at FPTase [1], the IC50 came out at 150 nM. On FPTase [2], this compound had an IC50 of 3800 nM.

The compound `Cc1cc([N+](=O)[O-])ccc1C#CCCCC1(S(=O)(=O)c2ccc(Oc3ccccc3)cc2)SC(=O)NC1=O` (stereo not drawn) [Example 129, 5-[5-(2-Methyl-4-nitrophenyl)pent-4-ynyl]-5-(4-phenoxybenzenesulfonyl)-thiazolidine-2,4-dione] gave a melting point of 210 to 212 °C. Also, the IC50 on FPTase [1] worked out at 100 nM. In addition, the IC50 on FPTase [2] was in the range of 600 to 790 nM.

`COc1ccc(S(=O)(=O)C2(CCCC#Cc3ccc(C(F)(F)F)cc3)SC(=O)NC2=O)cc1` (stereo not drawn) [Example 153, 5-(4-Methoxybenzenesulfonyl)-5-[5-(4-trifluoromethylphenyl)pent-4-ynyl]thiazolidine-2,4-dione]: the melting point was in the range of 160 to 163 °C. The IC50 at FPTase [1] was 170 to 200 nM. Besides, the IC50 on FPTase [2] is 1000 to 6100 nM.

Turning to `CCCCOc1ccc(S(=O)(=O)C2(CCCC#Cc3ccc(Cl)cc3)SC(=O)NC2=O)cc1` (stereo not drawn) [Example 112, 5-(4-Butoxybenzenesulfonyl)-5-[5-(4-chlorophenyl)-pent-4-ynyl]-thiazolidine-2,4-dione], the melting point fell in the range of 116 to 118 °C. Further, the IC50 at FPTase [1] lay in the range of 590 to 600 nM. Moreover, at FPTase [2], the IC50 fell in the range of 1400 to 1500 nM.

In the case of `Cc1ccc(S(=O)(=O)C2(CCCC#Cc3ccc(Cl)cc3)SC(=O)NC2=O)cc1` (stereo not drawn) [Example 103, 5-[5-(4-Chlorophenyl)pent-4-ynyl]-5-(p-tolylsulfonyl)thiazolidine-2,4-dione], the melting point is 176 to 177 °C. Further, on FPTase [1], the IC50 lay within 30 to 50 nM. Besides, at FPTase [2], the IC50 lay in the range of 900 to 10000 nM.

In the case of `Cc1ccc(C#CCCCC2(S(=O)(=O)c3ccc(I)cc3)SC(=O)NC2=O)c(C)c1` (stereo not drawn) [Example 137, 5-[5-(2,4-Dimethylphenyl)pent-4-ynyl]-5-(4-iodobenzenesulfonyl)-thiazolidine-2,4-dione], the melting point was 153 to 154 °C. Also, on FPTase [1], the 50% inhibitory concentration (IC50) fell in the range of 21 to 400 nM. The same compound came in with a concentration for half-maximal inhibition (IC50) against FPTase [2] of 37 to 800 nM.

For the compound `CC(=O)Nc1ccc(S(=O)(=O)C2(CCCC#Cc3ccc(Cl)cc3)SC(=O)NC2=O)cc1` (stereo not drawn) [Example 108, N-(4-{5-[5-(4-Chlorophenyl)pent-4-ynyl]-2,4-dioxothiazolidine-5-sulfonyl}phenyl)acetamide], the melting point was 232 °C (dec.). Besides, the IC50 on FPTase [1] fell in the range of 130 to 180 nM. At FPTase [2], this compound displayed a concentration for half-maximal inhibition (IC50) of at least 9000 nM.

For the compound `O=C1NC(=O)C(CCCC#Cc2ccc(Cl)cc2)(S(=O)(=O)c2ccc(OCc3ccccc3)cc2)S1` (stereo not drawn) [Example 111, 5-(4-Benzyloxybenzenesulfonyl)-5-[5-(4-chlorophenyl)pent-4-ynyl]-thiazolidine-2,4-dione], the melting point lay in the range of 181 to 184 °C. Further, the IC50 at FPTase [1] was 110 to 150 nM. The half-maximal inhibitory concentration (IC50) at FPTase [2] fell in the range of 300 to 550 nM.

`Cc1ccc(S(=O)(=O)C2(CCCC#Cc3ccc(C(C)(C)C)cc3)SC(=O)NC2=O)cc1` (stereo not drawn) [Example 157, 5-[5-(4-tert-Butylphenyl)pent-4-ynyl]-5-(toluene-4-sulfonyl)thiazolidine-2,4-dione] returned a melting point of 134 to 138 °C. In addition, at FPTase [1], the IC50 was determined as 270 nM. At FPTase [2], this compound registered an IC50 of 5000 nM.

For the compound `O=C1NC(=O)C(CCCC#Cc2ccc([N+](=O)[O-])cc2)(S(=O)(=O)c2ccc(I)cc2)S1` (stereo not drawn) [Example 120, 5-(4-Iodobenzenesulfonyl)-5-[5-(4-nitrophenyl)pent-4-ynyl]thiazolidine-2,4-dione], the melting point is 205 to 207 °C. For the same compound, the IC50 at FPTase [1] was 18 to 32 nM. Also, the IC50 against FPTase [2] is 530 to 1000 nM.

In the case of `O=C1NC(=O)C(CCCC#Cc2cc(Cl)ccc2Cl)(S(=O)(=O)c2ccc(Oc3ccncc3)cc2)S1` (stereo not drawn) [Example 116, 5-[5-(2,5-Dichlorophenyl)pent-4-ynyl]-5-[4-(pyridin-4-yloxy)benzenesulfonyl]thiazolidine-2,4-dione], the melting point was 179 to 180 °C (dec.). For the same compound, the IC50 on FPTase [1] fell in the range of 5 to 10 nM. On FPTase [2], this compound registered an IC50 of 17 to 40 nM.

The compound `O=C1NC(=O)C(CCCC#Cc2ccc(Cl)cc2)(S(=O)(=O)c2ccc3ccccc3c2)S1` (stereo not drawn) [Example 107, 5-[5-(4-Chlorophenyl)pent-4-ynyl]-5-(naphthalene-2-sulfonyl)thiazolidine-2,4-dione] returned a melting point of 150 to 153 °C. Besides, at FPTase [1], the IC50 lay within 180 to 200 nM. At FPTase [2], this compound had an IC50 of 620 to 700 nM.

Turning to `Cc1ccc(NC(=O)OC(C)(C)C)cc1C#CCCCC1(S(=O)(=O)c2ccc(I)cc2)SC(=O)NC1=O` (stereo not drawn) [Example 148, (3-{5-[5-(4-Iodobenzenesulfonyl)-2,4-dioxothiazolidin-5-yl]-pent-1-ynyl}-4-methylphenyl)carbamic Acid tert-Butyl Ester], the melting point was 172 to 175 °C. At FPTase [1], the 50% inhibitory concentration (IC50) is 4.5 to 120 nM. Moreover, on FPTase [2], the half-inhibitory concentration (IC50) was 23 to 31 nM.

For `COc1ccc(S(=O)(=O)C2(CCCC#Cc3cccc([N+](=O)[O-])c3)SC(=O)NC2=O)cc1` (stereo not drawn) [Example 118, 5-(4-Methoxybenzenesulfonyl)-5-[5-(3-nitrophenyl)pent-4-ynyl]thiazolidine-2,4-dione], the melting point was 126 to 130 °C. Besides, the IC50 at FPTase [1] was determined as 70 nM. The IC50 against FPTase [2] came to 1900 nM.

In the case of `Cc1cc(Br)ccc1C#CCCCC1(S(=O)(=O)c2ccc(I)cc2)SC(=O)NC1=O` (stereo not drawn) [Example 144, 5-[5-(4-Bromo-2-methylphenyl)pent-4-ynyl]-5-(4-iodobenzenesulfonyl)-thiazolidine-2,4-dione], the melting point is 146 to 147 °C. For the same compound, at FPTase [1], the IC50 is 40 to 41 nM. At FPTase [2], the IC50 fell in the range of 320 to 550 nM.

The compound `Cc1ccc(S(=O)(=O)C2(CC#Cc3ccc(-c4ccccc4)cc3)SC(=O)NC2=O)cc1` (stereo not drawn) [Example 169, 5-(3-Biphenyl-4-yl-prop-2-ynyl)-5-(toluene-4-sulfonyl)-thiazolidine-2,4-dione] showed a melting point of 179 to 180 °C. In addition, the IC50 on FPTase [1] was 100 nM. This compound also showed an IC50 at FPTase [2] of 1800 nM.

For the compound `COc1ccc(S(=O)(=O)C2(CCCC#Cc3cc(C)ccc3C)SC(=O)NC2=O)cc1` (stereo not drawn) [Example 135, 5-[5-(2,5-Dimethylphenyl)pent-4-ynyl]-5-(4-methoxybenzenesulfonyl)-thiazol idine-2 ,4-dione], the melting point fell in the range of 149 to 150 °C. In addition, the IC50 at FPTase [1] is 20 to 32 nM. Besides, at FPTase [2], the half-inhibitory concentration (IC50) fell in the range of 1900 to 2100 nM.

`O=C1NC(=O)C(CCCC#Cc2cccc([N+](=O)[O-])c2)(S(=O)(=O)c2ccc(Oc3ccccc3)cc2)S1` (stereo not drawn) [Example 119, 5-[5-(3-Nitrophenyl)pent-4-ynyl]-5-(4-phenoxybenzenesulfonyl)thiazolidine-2,4-dione]: the melting point fell in the range of 190 to 191 °C. Moreover, the IC50 at FPTase [1] lay within 130 to 140 nM. On FPTase [2], this compound came in with an IC50 of 1300 to 1700 nM.

`COC(=O)c1ccc(C)c(C#CCCCC2(S(=O)(=O)c3ccc(OC)cc3)SC(=O)NC2=O)c1` (stereo not drawn) [Example 155, 3-{5-[5-(4-Methoxybenzenesulfonyl)-2,4-dioxo-thiazolidin-5-yl]-pent-1-ynyl}-4-methylbenzoic Acid Methyl Ester] registered a melting point of 119 to 121 °C. Moreover, the IC50 on FPTase [1] lay within 10 to 320 nM. This compound yielded an IC50 against FPTase [2] of 420 to 440 nM.

`COc1cccc(S(=O)(=O)C2(CCCC#Cc3cccs3)SC(=O)NC2=O)c1` (stereo not drawn) [Example 164, 5-(3-Methoxybenzenesulfonyl)-5-(5-thiophen-2-yl-pent-4-ynyl)-thiazolidine-2,4-dione] registered a melting point of 133 to 135 °C. In addition, the IC50 on FPTase [1] was determined as 150 nM. Also, the IC50 against FPTase [2] is over 10000 nM.

In turn, `COc1ccc(S(=O)(=O)C2(CCCC#Cc3ccc([N+](=O)[O-])cc3)SC(=O)NC2=O)cc1` (stereo not drawn) [Example 121, 5-(4-Methoxybenzenesulfonyl)-5-[5-(4-nitrophenyl)pent-4-ynyl]thiazolidine-2,4-dione] gave a melting point of 156 to 158 °C. Moreover, the IC50 at FPTase [1] was 120 nM. At FPTase [2], half-maximal inhibition (IC50) was put at 1600 nM.

The compound `Cc1ccc(C)c(C#CCCCC2(S(=O)(=O)c3ccc(I)cc3)SC(=O)NC2=O)c1` (stereo not drawn) [Example 134, 5-[5-(2,5-Dimethylphenyl)pent-4-ynyl]-5-(4-iodobenzenesulfonyl)-thiazolidine-2,4-dione] registered a melting point of 129 to 130 °C. For the same compound, the IC50 on FPTase [1] fell in the range of 14 to 850 nM. The compound also returned a half-maximal inhibitory concentration (IC50) against FPTase [2] of 430 to 680 nM.

Turning to `Cc1ccc(S(=O)(=O)C2(CC#Cc3ccc(Oc4ccccc4)cc3)SC(=O)NC2=O)cc1` (stereo not drawn) [Example 170, 5-[3-(4-Phenoxyphenyl)prop-2-ynyl]-5-(toluene-4-sulfonyl)-thiazolidine-2,4-dione], the melting point fell in the range of 64 to 66 °C. In addition, the IC50 at FPTase [1] worked out at 380 nM. The same compound returned an IC50 at FPTase [2] of 4700 nM.

On to `Cc1ccc([N+](=O)[O-])cc1C#CCCCC1(S(=O)(=O)c2ccc(Oc3ccccc3)cc2)SC(=O)NC1=O` (stereo not drawn) [Example 124], for which the melting point was in the range of 203 to 204 °C. Besides, the IC50 on FPTase [1] lay in the range of 52 to 80 nM. The IC50 at FPTase [2] fell in the range of 910 to 1300 nM.

Turning to `Cc1ccc([N+](=O)[O-])cc1C#CCCCC1(S(=O)(=O)c2ccc3ccccc3c2)SC(=O)NC1=O` (stereo not drawn) [Example 127, 5-[5-(2-Methyl-5-nitrophenyl)pent-4-ynyl]-5-(naphthalene-2-sulfonyl)-thiazolidine-2,4-dione], the melting point was in the range of 197 to 200 °C. Further, the IC50 at FPTase [1] was 120 to 140 nM. Moreover, the IC50 on FPTase [2] was in the range of 1300 to 1500 nM.

For the compound `O=C1NC(=O)C(CCCC#Cc2ccc(-n3cccc3)cc2)(S(=O)(=O)c2ccc(I)cc2)S1` (stereo not drawn) [Example 162, 5-(4-Iodo-benzenesulfonyl)-5-[5-(4-pyrrol-1-yl-phenyl)pent-4-ynyl]-thiazolidine-2,4-dione], the melting point lay in the range of 194 to 195 °C. Moreover, on FPTase [1], the IC50 was 1210 nM. Besides, the 50% inhibitory concentration (IC50) on FPTase [2] came to 4000 nM.
